Test results: ChEMBL document CHEMBL4837206, “Synthesis and biological evaluation of novel isoxazole-piperazine hybrids as potential anti-cancer agents with inhibitory effect on liver cancer stem cells” (Eur J Med Chem, 2021)
Calls of active or inactive are those of the source. The calls are words filed in the database; no cut-off is given here.

How the values were obtained:
HepG2 [1] = assay: Antiproliferative activity against human HepG2 cells assessed as reduction in cell viability measured after 90 hrs by RT-CES analysis; assay type: functional, cell-based
Mahlavu [2] = assay: Antiproliferative activity against human Mahlavu cells assessed as reduction in cell viability measured after 90 hrs by RT-CES analysis; assay type: functional, cell-based
SNU-475 [3] = assay: Antiproliferative activity against human SNU-475 cells assessed as reduction in cell viability measured after 40 to 130 hrs by RT-CES analysis; assay type: functional, cell-based; conditions: time 40-130 hrs
HepG2 [4] = assay: Antiproliferative activity against human HepG2 cells assessed as reduction in cell viability measured for 180 hrs by RT-CES analysis; assay type: functional, cell-based; conditions: dose 2.5-10 µM
SNU-475 [5] = assay: Antiproliferative activity against human SNU-475 cells assessed as reduction in cell viability measured for 180 hrs by RT-CES analysis; assay type: functional, cell-based; conditions: dose 2.5-10 µM
Mahlavu [6] = assay: Induction of apoptosis in human Mahlavu cells at 5 uM measured after 72 hrs by Annexin V-FITC/propidium iodide staining based flow cytometric analysis; assay type: functional, cell-based
Huh-7 [7] = assay: Induction of apoptosis in human Huh-7 cells at 5 uM measured after 72 hrs by Annexin V-FITC/propidium iodide staining based flow cytometric analysis; assay type: functional, cell-based
HepG2 [8] = assay: Induction of apoptosis in human HepG2 cells at 5 uM measured after 72 hrs by Annexin V-FITC/propidium iodide staining based flow cytometric analysis; assay type: functional, cell-based
Mahlavu [9] = assay: Induction of apoptosis in human Mahlavu cells assessed as nuclear fragmentation measured after 48 hrs by Hoechst33258 staining based inverted fluorescent microscopic method; assay type: functional, cell-based
SNU-475 [10] = assay: Activation of p53 harboring A239G/T275C/A288G mutant in human SNU-475 cells assessed as upregulation of p53 phosphorylation at Ser15 residue at 5 uM incubated for 72 hrs by western blot analysis; assay type: cell-based; conditions: filed as activator
Mahlavu [11] = assay: Activation of p53 harboring G249T mutant in human Mahlavu cells assessed as upregulation of p53 phosphorylation at Ser15 residue at 5 uM incubated for 72 hrs by western blot analysis; assay type: cell-based; conditions: filed as activator
[12] = target: T1, Serine/threonine-protein kinase AKT (Homo sapiens) (UniProt P31751+Q9Y243+P31749); assay: Inhibition of Akt phosphorylation at Ser473 residue in human Mahlavu cells at 5 uM measured after 72 hrs by Western blot analysis; assay type: cell-based
[13] = target: T1, Serine/threonine-protein kinase AKT (Homo sapiens); assay: Inhibition of Akt phosphorylation at Ser473 residue in human HepG2 cells at 5 uM measured after 72 hrs by Western blot analysis; assay type: cell-based
[14] = Inhibition of PI3K/Akt/mTOR signaling in human Mahlavu cells assessed as downregulation of c-Myc protein expression at 5 uM measured after 72 hrs by Western blot analysis; assay type: cell-based
[15] = target: Mitogen-activated protein kinase; ERK1/ERK2 (Homo sapiens) (UniProt P27361+P28482); assay: Inhibition of ERK1/2 phosphorylation at T202/Y204 residue in human Mahlavu cells at 5 uM measured after 72 hrs by Western blot analysis; assay type: cell-based
Huh-7 [16] = assay: Inhibition of cell stemness in human Huh-7 cells assessed as CD133+/EpCAM+ expression at 10 uM measured after 72 hrs by flow cytometry analysis (reference value: 29.92%); assay type: functional; design: scale not given: the % may be the effect or the level left
Huh-7 [17] = assay: Inhibition of cell stemness in human Huh-7 cells assessed as decrease in OCT4 mRNA level at 10 uM measured after 72 hrs by RT-qPCR analysis; assay type: functional, cell-based
Mahlavu [18] = assay: Inhibition of cell stemness in human Mahlavu cells assessed as decrease in NANOG level at 10 uM measured after 72 hrs by flow cytometry analysis; assay type: functional, cell-based
Mahlavu [19] = assay: Inhibition of cell stemness in human Mahlavu cells assessed as decrease in OCT4 level at 10 uM measured after 72 hrs by flow cytometry analysis; assay type: functional, cell-based
Huh-7 [20] = assay: Induction of apoptosis in human Huh-7 cells assessed as apoptotic body formation measured after 48 hrs by Hoechst33258 staining based inverted fluorescent microscopic method; assay type: functional, cell-based
HepG2 [21] = assay: Induction of apoptosis in human HepG2 cells assessed as chromatin condensation measured after 48 hrs by Hoechst33258 staining based inverted fluorescent microscopic method; assay type: functional, cell-based
HepG2 [22] = assay: Induction of apoptosis in human HepG2 cells assessed as nuclear fragmentation measured after 48 hrs by Hoechst33258 staining based inverted fluorescent microscopic method; assay type: functional, cell-based
SNU-475 [23] = assay: Activation of p53 harboring A239G/T275C/A288G mutant in human SNU-475 cells assessed as upregulation of p53 acetylation at Lys382 residue at 5 uM incubated for 72 hrs by western blot analysis; assay type: cell-based; conditions: filed as activator
[24] = target: T1, Serine/threonine-protein kinase AKT (Homo sapiens); assay: Inhibition of Akt phosphorylation at Ser473 residue in human SNU-475 cells at 5 uM measured after 72 hrs by Western blot analysis; assay type: cell-based
Mahlavu [25] = assay: Inhibition of cell stemness in human Mahlavu cells assessed as decrease in NANOG mRNA level at 10 uM measured after 72 hrs by RT-qPCR analysis; assay type: functional, cell-based

T1 sequence (P31749 whole entry, looked up): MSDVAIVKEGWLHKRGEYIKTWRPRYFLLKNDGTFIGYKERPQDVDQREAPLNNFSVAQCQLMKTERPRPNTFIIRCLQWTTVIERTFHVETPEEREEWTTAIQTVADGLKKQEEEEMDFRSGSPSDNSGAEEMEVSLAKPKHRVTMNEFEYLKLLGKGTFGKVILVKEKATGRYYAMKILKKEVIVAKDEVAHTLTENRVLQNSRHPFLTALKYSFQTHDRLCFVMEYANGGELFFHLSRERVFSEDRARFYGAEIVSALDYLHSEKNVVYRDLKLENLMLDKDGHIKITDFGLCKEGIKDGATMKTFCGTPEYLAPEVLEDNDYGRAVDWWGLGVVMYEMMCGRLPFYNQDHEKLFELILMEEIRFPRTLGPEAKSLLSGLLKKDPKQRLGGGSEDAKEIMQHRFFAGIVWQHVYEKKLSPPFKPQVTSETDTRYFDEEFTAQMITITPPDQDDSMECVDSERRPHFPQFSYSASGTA
T1 sequence (P31751 whole entry, looked up): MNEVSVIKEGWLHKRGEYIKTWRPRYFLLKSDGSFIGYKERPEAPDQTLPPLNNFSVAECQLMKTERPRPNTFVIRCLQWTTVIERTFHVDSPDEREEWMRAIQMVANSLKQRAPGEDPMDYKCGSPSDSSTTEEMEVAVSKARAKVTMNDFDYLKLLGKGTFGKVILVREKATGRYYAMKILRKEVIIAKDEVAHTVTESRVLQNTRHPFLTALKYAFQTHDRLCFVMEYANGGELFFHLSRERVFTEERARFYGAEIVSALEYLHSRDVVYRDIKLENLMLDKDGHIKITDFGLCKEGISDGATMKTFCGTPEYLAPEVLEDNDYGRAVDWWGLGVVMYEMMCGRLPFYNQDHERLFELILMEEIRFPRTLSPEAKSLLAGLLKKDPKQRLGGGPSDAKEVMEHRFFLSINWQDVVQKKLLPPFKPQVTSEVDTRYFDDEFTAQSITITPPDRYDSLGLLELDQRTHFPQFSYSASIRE
T1 sequence (Q9Y243 whole entry, looked up): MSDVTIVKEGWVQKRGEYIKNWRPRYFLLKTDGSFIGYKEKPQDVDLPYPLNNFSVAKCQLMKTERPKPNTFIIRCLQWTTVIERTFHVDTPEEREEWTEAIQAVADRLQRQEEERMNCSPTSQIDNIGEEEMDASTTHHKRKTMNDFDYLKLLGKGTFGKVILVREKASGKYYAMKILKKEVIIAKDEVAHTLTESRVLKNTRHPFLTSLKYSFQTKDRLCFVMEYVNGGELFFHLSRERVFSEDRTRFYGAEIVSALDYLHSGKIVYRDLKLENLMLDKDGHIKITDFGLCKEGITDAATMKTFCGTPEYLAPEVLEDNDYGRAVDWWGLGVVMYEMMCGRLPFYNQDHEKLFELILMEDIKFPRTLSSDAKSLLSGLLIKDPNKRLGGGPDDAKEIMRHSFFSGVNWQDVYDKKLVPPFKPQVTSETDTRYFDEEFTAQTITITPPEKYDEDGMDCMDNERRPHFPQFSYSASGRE
Chain of Mitogen-activated protein kinase; ERK1/ERK2 (Homo sapiens) (P27361 whole entry, looked up): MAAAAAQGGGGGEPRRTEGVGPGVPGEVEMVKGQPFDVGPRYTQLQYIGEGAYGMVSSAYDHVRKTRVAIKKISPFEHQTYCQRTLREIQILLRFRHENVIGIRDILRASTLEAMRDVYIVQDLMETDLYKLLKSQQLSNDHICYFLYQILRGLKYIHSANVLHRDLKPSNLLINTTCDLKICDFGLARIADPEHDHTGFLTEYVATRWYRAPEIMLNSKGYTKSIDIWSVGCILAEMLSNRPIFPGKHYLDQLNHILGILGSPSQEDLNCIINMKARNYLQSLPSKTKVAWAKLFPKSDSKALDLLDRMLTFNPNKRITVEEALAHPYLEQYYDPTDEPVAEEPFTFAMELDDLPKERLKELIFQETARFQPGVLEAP
Chain of Mitogen-activated protein kinase; ERK1/ERK2 (Homo sapiens) (P28482 whole entry, looked up): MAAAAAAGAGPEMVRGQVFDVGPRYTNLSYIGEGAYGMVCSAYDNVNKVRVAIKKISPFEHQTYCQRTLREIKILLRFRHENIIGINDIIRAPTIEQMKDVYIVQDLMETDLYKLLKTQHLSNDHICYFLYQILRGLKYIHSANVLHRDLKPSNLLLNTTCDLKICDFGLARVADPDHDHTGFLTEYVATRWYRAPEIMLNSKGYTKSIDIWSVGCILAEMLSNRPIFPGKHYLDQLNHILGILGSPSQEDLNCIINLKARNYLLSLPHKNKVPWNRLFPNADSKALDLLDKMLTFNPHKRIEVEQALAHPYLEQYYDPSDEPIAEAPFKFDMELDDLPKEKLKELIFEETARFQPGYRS

Row | SMILES | Activity (HepG2 [1]) | Activity (Mahlavu [2]) | Activity (SNU-475 [3]) | Activity (HepG2 [4]) | Activity (SNU-475 [5]) | Activity (Mahlavu [6]) | Activity (Huh-7 [7]) | Activity (HepG2 [8]) | Activity (Mahlavu [9]) | Activity (SNU-475 [10]) | inhibition [12] | inhibition [13] | inhibition [14] | inhibition [15] | Activity (Huh-7 [16]) | inhibition (Huh-7 [17]) | inhibition (Mahlavu [18]) | inhibition (Mahlavu [19]) | Activity (Huh-7 [20]) | Activity (HepG2 [21]) | other results
1 | FC(F)(F)c1ccc(CN2CCN(Cc3cc(-c4ccc(OCc5ccccc5)cc4)on3)CC2)cc1 | Active | Active | Active | Dose-Dependent Effect | Dose-Dependent Effect | Active | Active | Active | Active | Active | Active | inactive | Active | Active | 23.68% | Active | Active | Active | Active | Active | Activity (Mahlavu [11]): Active; Activity (HepG2 [22]): Active
2 | N#Cc1cccc(COc2ccc(-c3cc(CN4CCN(Cc5ccc(C(F)(F)F)cc5)CC4)no3)cc2F)c1 | Active | Active | Active | Dose-Dependent Effect | Dose-Dependent Effect | Active | Active | Active | Active | Active | Active | inactive | Active | Active | 13.12% | Active | Active | Active | Active | Active | Activity (SNU-475 [23]): Active; inhibition [24]: Active; inhibition (Mahlavu [25]): Active; Activity (HepG2 [22]): Active
